In patent US11254663B2 (BRISTOL-MYERS SQUIBB COMPANY, priority 2019, dated 2022) one finds EC50 data, which are given here for 22 molecules.

Structures are written as SMILES.

FXR, sequence (Q96RI1 262-486): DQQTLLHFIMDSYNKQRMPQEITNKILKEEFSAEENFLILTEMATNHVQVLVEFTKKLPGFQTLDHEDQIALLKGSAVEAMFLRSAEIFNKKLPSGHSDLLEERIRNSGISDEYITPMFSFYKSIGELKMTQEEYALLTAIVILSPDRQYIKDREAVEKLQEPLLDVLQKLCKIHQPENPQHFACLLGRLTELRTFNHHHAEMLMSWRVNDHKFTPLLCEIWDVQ

The first assay addresses FXR (Homo sapiens (Human), UniProt Q96RI1). Briefly: transient human FXR/Gal4-luciferase reporter assay.
Conditions: not given
Type of assay: cell-based. The gist of the method: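 Compound exposure ran overnight at 37 °C and activity was measured as luminescence with Steady-Glo reagent. The cells were a HEK293 line stably expressing firefly luciferase under five Gal4 response elements. They were transiently transfected, one night beforehand, with a plasmid encoding Gal4 DNA-binding domain fused to the human FXR ligand-binding domain.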
`CC(C)(C)c1nc(C23CCC(CN(C(=O)C4CC(O)(C(F)(F)F)C4)c4cccc(-c5ccc(OC(F)F)cc5)c4)(CC2)CC3)no1` [Example 516, (1S,3S)—N-((4-(5-(tert-butyl)-1,2,4-oxadiazol-3-yl)bicyclo[2.2.2]octan-1-yl)methyl)-N-(4′-(difluoromethoxy)-[1,1′-biphenyl]-3-yl)-3-hydroxy-3-(trifluoromethyl)cyclobutane-1-carboxamide] came in with an EC50 of 94 nM.

As to `CC1(O)CC(C(=O)N(CC23CCC(c4noc(C(C)(C)C)n4)(CC2)CC3)c2cccc(-c3ccc(OC(F)F)cc3)c2)C1` [Example 517, (1S,3S)—N-((4-(5-(tert-butyl)-1,2,4-oxadiazol-3-yl)bicyclo[2.2.2]octan-1-yl)methyl)-N-(4′-(difluoromethoxy)-[1,1′-biphenyl]-3-yl)-3-hydroxy-3-methylcyclobutane-1-carboxamide], the response was half-maximal at 255 nM (EC50).

Regarding `CCOc1ncc(-c2cccc(N(CC34CCC(c5noc(C6(C)COC6)n5)(CC3)CC4)C(=O)[C@H]3C[C@@](C)(O)C3)c2)cn1` [Example 519, (1S,3S)—N-(3-(2-ethoxypyrimidin-5-yl)phenyl)-3-hydroxy-3-methyl-N-((4-(5-(3-methyloxetan-3-yl)-1,2,4-oxadiazol-3-yl)bicyclo[2.2.2]octan-1-yl)methyl)cyclobutane-1-carboxamide], the response was half-maximal at 504 nM (EC50).

The molecule `CCOc1ncc(-c2cccc(N(CC34CCC(c5noc(C6(C)COC6)n5)(CC3)CC4)C(=O)[C@H]3C[C@](O)(C(F)(F)F)C3)c2)cn1` [Example 520, (1S,3S)—N-(3-(2-ethoxypyrimidin-5-yl)phenyl)-3-hydroxy-N-((4-(5-(3-methyloxetan-3-yl)-1,2,4-oxadiazol-3-yl)bicyclo[2.2.2]octan-1-yl)methyl)-3-(trifluoromethyl)cyclobutane-1-carboxamide] registered an EC50 of 449 nM.

`O=C(N(CC12CCC(c3noc(C4(C(F)(F)F)CC4)n3)(CC1)CC2)c1cccc(-c2ccc(OC(F)F)cc2)c1)C12CC(F)(C1)C2` [Example 522, N-(4′-(difluoromethoxy)-[1,1′-biphenyl]-3-yl)-3-fluoro-N-((4-(5-(1-(trifluoromethyl)cyclopropyl)-1,2,4-oxadiazol-3-yl)bicyclo[2.2.2]octan-1-yl)methyl)bicyclo[1.1.1]pentane-1-carboxamide]: a half-maximal effect (EC50) was put at 69 nM.

As to `CS(=O)(=O)Nc1ccc(-c2cccc(N(CC34CCC(c5noc(C6(C(F)(F)F)CC6)n5)(CC3)CC4)C(=O)C34CC(F)(C3)C4)c2)cc1` [Example 523, 3-fluoro-N-(4′-(methylsulfonamido)-[1,1′-biphenyl]-3-yl)-N-((4-(5-(1-(trifluoromethyl)cyclopropyl)-1,2,4-oxadiazol-3-yl)bicyclo[2.2.2]octan-1-yl)methyl)bicyclo[1.1.1]pentane-1-carboxamide], the response was half-maximal at 189 nM (EC50).

For `Cc1nc2ccc(-c3cccc(N(CC45CCC(c6noc(C7(C(F)(F)F)CC7)n6)(CC4)CC5)C(=O)C45CC(F)(C4)C5)c3)cc2s1` [Example 524, 3-fluoro-N-(3-(2-methylbenzo[d]thiazol-6-yl)phenyl)-N-((4-(5-(1-(trifluoromethyl)cyclopropyl)-1,2,4-oxadiazol-3-yl)bicyclo[2.2.2]octan-1-yl)methyl)bicyclo[1.1.1]pentane-1-carboxamide], a half-maximal effect (EC50) was put at 119 nM.

On to `CCOc1ncc(-c2cccc(N(CC34CCC(c5noc(C6(C(F)(F)F)CC6)n5)(CC3)CC4)C(=O)C34CC(F)(C3)C4)c2)cn1` [Example 525, N-(3-(2-ethoxypyrimidin-5-yl)phenyl)-3-fluoro-N-((4-(5-(1-(trifluoromethyl)cyclopropyl)-1,2,4-oxadiazol-3-yl)bicyclo[2.2.2]octan-1-yl)methyl)bicyclo[1.1.1]pentane-1-carboxamide], for which the EC50 was 142 nM.

With `O=C(N(CC12CCC(c3noc(C4(C(F)(F)F)CC4)n3)(CC1)CC2)c1cccc(-c2cnc3nc(C4CC4)sc3c2)c1)C12CC(F)(C1)C2` [Example 526, N-(3-(2-cyclopropylthiazolo[4,5-b]pyridin-6-yl)phenyl)-3-fluoro-N-((4-(5-(1-(trifluoromethyl)cyclopropyl)-1,2,4-oxadiazol-3-yl)bicyclo[2.2.2]octan-1-yl)methyl) bicyclo[1.1.1]pentane-1-carboxamide], the EC50 came out at 497 nM.

The molecule `CC(F)(F)c1nc(C23CCC(CN(C(=O)C45CC(F)(C4)C5)c4cccc(-c5ccc(OC(F)F)cc5)c4)(CC2)CC3)no1` [Example 528, N-((4-(5-(1,1-difluoroethyl)-1,2,4-oxadiazol-3-yl)bicyclo[2.2.2]octan-1-yl)methyl)-N-(4′-(difluoromethoxy)-[1,1′-biphenyl]-3-yl)-3-fluorobicyclo[1.1.1]pentane-1-carboxamide] displayed an EC50 of 73 nM.

For `CCOc1ncc(-c2cccc(N(CC34CCC(c5noc(C(C)(F)F)n5)(CC3)CC4)C(=O)C34CC(F)(C3)C4)c2)cn1` [Example 529, N-((4-(5-(1,1-difluoroethyl)-1,2,4-oxadiazol-3-yl)bicyclo[2.2.2]octan-1-yl)methyl)-N-(3-(2-ethoxypyrimidin-5-yl)phenyl)-3-fluorobicyclo[1.1.1]pentane-1-carboxamide], the response was half-maximal at 106 nM (EC50).

Turning to `CC(F)(F)c1nc(C23CCC(CN(C(=O)C45CC(F)(C4)C5)c4cccc(-c5cnc6nc(C7CC7)sc6c5)c4)(CC2)CC3)no1` [Example 530, N-(3-(2-cyclopropylthiazolo[4,5-b]pyridin-6-yl)phenyl)-N-((4-(5-(1,1-difluoroethyl)-1,2,4-oxadiazol-3-yl)bicyclo[2.2.2]octan-1-yl)methyl)-3-fluorobicyclo[1.1.1]pentane-1-carboxamide], the EC50 came out at 145 nM.

In the case of `CCOc1ccc(-c2ccnc(N(CC34CCC(c5noc(C(C)(C)C)n5)(CC3)CC4)C(=O)C34CC(F)(C3)C4)c2)cc1` [Example 532, N-((4-(5-(tert-butyl)-1,2,4-oxadiazol-3-yl)bicyclo[2.2.2]octan-1-yl)methyl)-N-(4-(4-ethoxyphenyl)pyridin-2-yl)-3-fluorobicyclo[1.1.1]pentane-1-carboxamide], a half-maximal response (EC50) required 86 nM.

`CC(C)(C)c1nc(C23CCC(CN(C(=O)C45CC(F)(C4)C5)c4cc(-c5ccc(OC(F)F)cc5)ccn4)(CC2)CC3)no1` [Example 533, N-((4-(5-(tert-butyl)-1,2,4-oxadiazol-3-yl)bicyclo[2.2.2]octan-1-yl)methyl)-N-(4-(4-(difluoromethoxy)phenyl)pyridin-2-yl)-3-fluorobicyclo[1.1.1]pentane-1-carboxamide] yielded an EC50 of 26 nM.

The molecule `CC(C)(C)c1nc(C23CCC(CN(C(=O)C45CC(F)(C4)C5)c4cc(-c5ccc(NS(C)(=O)=O)cc5)ccn4)(CC2)CC3)no1` [Example 534, N-((4-(5-(tert-butyl)-1,2,4-oxadiazol-3-yl)bicyclo[2.2.2]octan-1-yl)methyl)-3-fluoro-N-(4-(4-(methylsulfonamido)phenyl)pyridin-2-yl)bicyclo[1.1.1]pentane-1-carboxamide] yielded an EC50 of 77 nM.

Regarding `CC(C)(C)c1nc(C23CCC(CN(C(=O)C45CC(F)(C4)C5)c4cc(-c5cnc6nc(C7CC7)sc6c5)ccn4)(CC2)CC3)no1` [Example 535, N-((4-(5-(tert-butyl)-1,2,4-oxadiazol-3-yl)bicyclo[2.2.2]octan-1-yl)methyl)-N-(4-(2-cyclopropylthiazolo[4,5-b]pyridin-6-yl)pyridin-2-yl)-3-fluorobicyclo[1.1.1]pentane-1-carboxamide], the midpoint of the response, the EC50, lay at 202 nM.

Still in this assay, the particulars now being: Gal4-hFXR fusion construct, HEK293 reporter cells; response relative to 8 μM GW-4064.
`CO[C@H]1C[C@@H](C(=O)N(CC23CCC(c4noc(C(C)(C)C)n4)(CC2)CC3)c2cccc(-c3ccc(NS(C)(=O)=O)cc3)c2)C1` [Example 514, (1S,3S)—N-((4-(5-(tert-butyl)-1,2,4-oxadiazol-3-yl)bicyclo[2.2.2]octan-1-yl)methyl)-3-methoxy-N-(4′-(methylsulfonamido)-[1,1′-biphenyl]-3-yl)cyclobutane-1-carboxamide] yielded an EC50 of 2260 nM.

In the case of `CC1(C(=O)N(CC23CCC(c4noc(C(C)(C)C)n4)(CC2)CC3)c2cccc(-c3ccc(OC(F)F)cc3)c2)COC1` [Example 515, N-((4-(5-(tert-butyl)-1,2,4-oxadiazol-3-yl)bicyclo[2.2.2]octan-1-yl)methyl)-N-(4′-(difluoromethoxy)-[1,1′-biphenyl]-3-yl)-3-methyloxetane-3-carboxamide], the EC50 is 357 nM.

Molecule `CCOc1ncc(-c2cccc(N(CC34CCC(c5noc(C6(C)COC6)n5)(CC3)CC4)C(=O)[C@H]3C[C@@H](OC)C3)c2)cn1` [Example 518, (cis)-N-(3-(2-ethoxypyrimidin-5-yl)phenyl)-3-methoxy-N-((4-(5-(3-methyloxetan-3-yl)-1,2,4-oxadiazol-3-yl)bicyclo[2.2.2]octan-1-yl)methyl)cyclobutane-1-carboxamide] yielded an EC50 of 1290 nM.

Molecule `CCOc1ccc(-c2cccc(N(CC34CCC(c5noc(C6(C(F)(F)F)CC6)n5)(CC3)CC4)C(=O)C34CC(F)(C3)C4)c2)cc1` [Example 521, N-(4′-ethoxy-[1,1′-biphenyl]-3-yl)-3-fluoro-N-((4-(5-(1-(trifluoromethyl)cyclopropyl)-1,2,4-oxadiazol-3-yl)bicyclo[2.2.2]octan-1-yl)methyl)bicyclo[1.1.1]pentane-1-carboxamide] gave an EC50 of 112 nM.

The molecule `CCOc1ccc(-c2cccc(N(CC34CCC(c5noc(C(C)(F)F)n5)(CC3)CC4)C(=O)C34CC(F)(C3)C4)c2)cc1` [Example 527, N-((4-(5-(1,1-difluoroethyl)-1,2,4-oxadiazol-3-yl)bicyclo[2.2.2]octan-1-yl)methyl)-N-(4′-ethoxy-[1,1′-biphenyl]-3-yl)-3-fluorobicyclo[1.1.1]pentane-1-carboxamide] showed an EC50 of 103 nM.

`CCOc1ncc(-c2ccnc(N(CC34CCC(c5noc(C(C)(C)C)n5)(CC3)CC4)C(=O)C34CC(F)(C3)C4)c2)cn1` [Example 531, N-((4-(5-(tert-butyl)-1,2,4-oxadiazol-3-yl)bicyclo[2.2.2]octan-1-yl)methyl)-N-(4-(2-ethoxypyrimidin-5-yl)pyridin-2-yl)-3-fluorobicyclo[1.1.1]pentane-1-carboxamide] yielded an EC50 of 159 nM.

A word on the EC50: it is the concentration that produces a half-maximal response. A higher EC50 goes with a need for much substance.
